Results on 6 compounds are retold here after patent US8945635B2, “Formulations comprising extracts from primitive plant species (mosses, ferns and lichens) to treat and prevent cancers” (priority 2006, dated 2015).

Read-outs that look alike come from different tables or passages of the source.

Data set [1] has as its system Metastatic colon cancer (SW620) MTS cells. In words: Single agent treatment of metastatic colon cancer MTS cells. The class given is cell-based, human. As to conditions: 5 days, 5-fluorouracil 2.5 μM, Gemcitabine 5 μM.
Method: Metastatic MTS colon cancer (SW620) were treated for 24 hours with extract samples 1 (moss), 2 (moss), 4 (moss), 6 (moss), 5 (moss), 7 (fern), 8 (fern), 9 (moss), all at 50 mg/mL, and for 5 days with the standard chemotherapeutics 5-fluorouracil at 2.5 μM and Gemcitabine at 5 μM.
Metastatic colon cancer (SW620) MTS cells were treated for 24 hours with extract samples 12 (moss), 13 (fern), 14 (lichen), all at 50 mg/mL, and for 5 days with the standard chemotherapeutics 5-fluorouracil at 2.5 μM and Gemcitabine at 5 μM.
For data set [2], the system named is Glioblastoma Multiforme (GBM). As to conditions: cited from earlier work.
In data set [3] the test system is GBM multicellular tumor spheroid (MTS) culture (ATCC crl-2020). An excerpt:
(§1) Carmustine, berberine, curcumin, caffeic acid phenyl ester (CAPE), abscisic acid and a extract sample 19 (fern) were used, singly and in various combinations, to assess their potential effectiveness in promoting in vitro cell death responses in a malignant GBM cell line (ATCC crl-2020). Two different culture models were used in these experiments. The majority of vertebrate cells cultured in vitro grow as monolayers on an artificial substrate, as is the case with GBM cells. Live cells attach to the bottom of a tissue culture plate where they proliferate until the surface is confluent with cells. […] The three dimensional structure of solid tumors makes such tumors more resistant to treatment than a GBM cell monolayer culture. To more closely approximate in vivo conditions a multi-cellular tumor spheroid (MTS) model was used. In this model GBM cells were cultured on a 1% agarose matrix in a 24 well tissue culture dish to form multi cellular aggregates. […] Trypan blue staining and microscopic observation was used to assess cell viability after treatment.
A GBM multicellular tumor spheroid (MTS) culture plate was treated with moderately low concentrations of carmustine (50 μM dose); curcumin (20 μM dose); CAPE (20 μM dose); ABA (400 μM dose) and extract sample 19 (10 mg/mL dose). The treated cultures were incubated for 24 hours at 38° C. and assayed. The dosing conditions were designed to represent sub-optimal dosing conditions.
A GBM multicellular tumor spheroid (MTS) culture plate was treated with different two agent and three agent combinations including curcumin and extract sample 13; carmustine and extract sample 13; carmustine and curcumin; and carmustine and curcumin and extract sample 13. The agent concentrations were the same as in the single agent testing (carmustine (50 μM dose); curcumin (20 μM dose); CAPE (20 μM dose); ABA (400 μM dose) and extract sample 13 (10 mg/mL dose).
The treated cultures were incubated for 24 hours at 38° C. and assayed. The dosing conditions were designed to represent sub-optimal dosing conditions.

Data set [4] has as its system GBM monolayer culture (ATCC crl-2020). The conditions noted are these: for Viability: GBM monolayer, 12 hours at 38° C., carmustine 50 μM, curcumin 20 μM, CAPE 20 μM, ABA 400 μM, extract sample 19 10 mg/mL.
Source text: as §1
A GBM monolayer culture plate was treated with moderately low concentrations of carmustine (50 μM dose); curcumin (20 μM dose); CAPE (20 μM dose); ABA (400 μM dose) and extract sample 19 (10 mg/mL dose). The treated cultures were incubated for 12 hours at 38° C. and assayed. The dosing conditions were sub-optimal dosing conditions designed to allow better assessment of the combined agent results.

Setting [5] is: Table 18, standard chemotherapeutics.
[6] abbreviates: Table 19, standard chemotherapeutics.
Setting [7] is: GBM MTS cell cultures, agent used alone.
Setting [8] is: GBM monolayer cell cultures, agent used alone.

Regarding `O=c1[nH]cc(F)c(=O)[nH]1` [5-fluorouracil], in data set [1] (setting [5]), the “% dead cells” value was 55% and the “% live cells” value was 45%. For the same compound, in data set [1] (setting [6]), the “% dead cells” value was determined as 75% and the “% live cells” value is 25%.

Consider `O=NN(CCCl)C(=O)NCCCl` [carmustine, 1,3-bis(2-chloroethyl)-1-nitrosourea], for which the side effects entry in data set [2] (Intravenous administration) is “a decrease of bone marrow blood cells, lung damage and death”. For the same compound, the mean survival rate in data set [2] (applied in time release fashion to the tumor site, from 11.6 months) is on record as 13.9 months. Moreover, the “cytotoxicity of single agent in words” value in data set [3] (setting [7]) and in data set [4] (setting [8]) was “only low level cytotoxicity” in each case. Besides, the Viability in data set [4] was 100%.

Consider caffeic acid phenyl ester [CAPE], for which the “cytotoxicity of single agent in words” value in data set [3] (setting [7]) and in data set [4] (setting [8]) was “failed to produce significant cytotoxic responses” each time. Moreover, the Viability in data set [4] was 100%.

For `COc1cc(/C=C/C(=O)CC(=O)/C=C/c2ccc(O)c(OC)c2)ccc1O` [curcumin], the “cytotoxicity of single agent in words” value in data set [3] and in data set [4] was “failed to produce significant cytotoxic responses” throughout.

Regarding `CC1=CC(=O)CC(C)(C)[C@@]1(O)/C=C/C(C)=C\C(=O)O` [ABA, abscisic acid], the “cytotoxicity of single agent in words” value in data set [3] (setting [7]) and in data set [4] (setting [8]) was “failed to produce significant cytotoxic responses” each time. The Viability in data set [4] is 100%.

Consider `Nc1ccn([C@@H]2O[C@H](CO)[C@@H](O)C2(F)F)c(=O)n1` [Gemcitabine], for which, in data set [1] (setting [5]), the “% dead cells” value amounted to 20% and the “% live cells” value is 80%. In data set [1] (setting [6]), the “% dead cells” value came to 95% and the “% live cells” value turned out to be 5%.
